Experimental data reported in ChEMBL document CHEMBL3132849, “Bioactive prenylated phenyl derivatives derived from marine natural products: novel scaffolds for the design of BACE inhibitors” (Medchemcomm, 2014).
“And” between values parts separate entries of the source, which are not always exact repeats. Equal entries are not always repeated. Starred links: 1 amine or outer side, 2 acyl side, 3 side chain; linkers in the order of their positions; H or OH if unused. Non-standard residues stand in square brackets, D forms with d. Residues, ends and D or L forms follow the SMILES beside them. LeuΨ(S-CHOHCH2)Ala = CC(C)C[C@H](N[*:1])[C@@H](O)C[C@@H](C)C(=O)[*:2]

Experiments:
[1] = target: Beta-secretase 1 (Homo sapiens) (UniProt P56817); assay: Inhibition of recombinant human BACE1 using fluorogenic peptide 4 as substrate at 1 uM by FRET assay
Sequence of Beta-secretase 1 (Homo sapiens) (P56817 whole entry): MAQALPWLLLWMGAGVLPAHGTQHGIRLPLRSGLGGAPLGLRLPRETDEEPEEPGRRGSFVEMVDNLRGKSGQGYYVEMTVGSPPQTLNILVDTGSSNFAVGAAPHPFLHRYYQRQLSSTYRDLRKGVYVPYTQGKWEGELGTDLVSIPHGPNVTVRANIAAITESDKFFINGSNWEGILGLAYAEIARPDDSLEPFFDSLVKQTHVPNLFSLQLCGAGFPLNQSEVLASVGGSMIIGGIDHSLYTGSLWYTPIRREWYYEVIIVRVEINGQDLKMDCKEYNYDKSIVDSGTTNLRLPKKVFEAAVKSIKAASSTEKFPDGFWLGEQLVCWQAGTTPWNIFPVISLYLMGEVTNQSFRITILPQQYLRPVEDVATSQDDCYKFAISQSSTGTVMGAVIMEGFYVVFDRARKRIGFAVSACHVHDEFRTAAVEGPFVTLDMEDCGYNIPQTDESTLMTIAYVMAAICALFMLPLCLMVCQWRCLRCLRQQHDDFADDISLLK

[2] = target: Beta-secretase 1 (Homo sapiens) (UniProt P56817); assay: Inhibition of BACE1 (unknown origin) expressed in human APP751 transfected CHO-7W cells assessed as inhibition of amyloid-beta (1 to 40) peptide production at 10 uM after 24 hrs by Abeta40 human ELISA Kit; assay type: cell-based
[3] = target: Beta-secretase 1 (Homo sapiens) (UniProt P56817); assay: Inhibition of BACE1 (unknown origin) expressed in human APP751 transfected CHO-7W cells assessed as inhibition of amyloid-beta (1 to 40) peptide production at 1 uM after 24 hrs by Abeta40 human ELISA Kit; assay type: cell-based
[4] = target: Beta-secretase 1 (Homo sapiens) (UniProt P56817); assay: Inhibition of recombinant human BACE1 using fluorogenic peptide 4 as substrate at 10 uM by FRET assay
[5] = Cytotoxicity in human SH-SY5Y cells at 1 to 10 uM; assay type: cell-based
[6] = target: Beta-secretase 1 (Homo sapiens) (UniProt P56817); details: CHO-7W, 3 uM
Description: Inhibition of BACE1 in human APP751 transfected CHO-7W cells assessed as inhibition of amyloid-beta (1 to 40) peptide production at 3 uM after 24 hrs by Abeta40 human ELISA Kit

CHO = assay: Cytotoxicity in Cricetulus griseus CHO cells expressing human APP751 at 10 uM; assay type: cell-based; details: chinese hamster
[7] = target: Beta-secretase 1 (Homo sapiens) (UniProt P56817); assay: Inhibition of recombinant human BACE1 assessed as fluorescence at 1 uM using FRET ASSAY KIT
[8] = target: Beta-secretase 1 (Homo sapiens) (UniProt P56817); assay: Inhibition of recombinant human BACE1 assessed as fluorescence at 10 uM using FRET ASSAY KIT

| inhibition [1] | inhibition [2] | inhibition [3] | inhibition [4] [%] | inhibition [6] [%] | inhibition [7] [%] | inhibition [8] [%] | Compound | Activity [5] | Activity (CHO) |
| --- | --- | --- | --- | --- | --- | --- | --- | --- | --- |
| 100% | 29% | 0% | 68 | – | – | – | COC(=O)c1ccc(OC)c(NC/C=C(\C)CC/C=C(\C)CCC=C(C)C)c1 | – | – |
| 50% | – | 31% | 0 | – | – | – | COc1ccc(C(=O)O)cc1NC/C=C(\C)CC/C=C(\C)CCC=C(C)C | – | Toxic |
| 94% | 0% | – | 64 | – | – | – | COc1ccccc1NC/C=C(\C)CC/C=C(\C)CCC=C(C)C | – | – |
| 88% | 0% | 0% | 27 | – | – | – | CCCOc1ccc(C(=O)OC)cc1NC/C=C(\C)CC/C=C(\C)CCC=C(C)C | – | – |
| 100% | 0% | – | 36 | – | – | – | CC(C)=CCC/C(C)=C/CC/C(C)=C/CNc1cc(C(=O)O)ccc1O | – | – |
| 100% | 0% | – | 70 | – | – | – | COC(=O)c1ccnc(NC/C=C(\C)CC/C=C(\C)CCC=C(C)C)c1 | – | – |

Further lines, the compound ahead of its results:

| Compound | inhibition [1] | inhibition [2] | inhibition [3] | inhibition [4] [%] | inhibition [6] [%] | inhibition [7] [%] | inhibition [8] [%] | Activity [5] | Activity (CHO) |
| --- | --- | --- | --- | --- | --- | --- | --- | --- | --- |
| CCOC(=O)COc1ccc(C(=O)OC)cc1N(C/C=C(\C)CC/C=C(\C)CCC=C(C)C)CC(=O)OCC | 100% | 36% | 14% | 0 | – | – | – | – | – |
| CC(C)=CCC/C(C)=C/CC/C(C)=C/CNc1cccc(C(=O)O)c1 | 89% | – | – | 25 | – | – | – | Toxic | – |
| CC(C)=CCC/C(C)=C/CC/C(C)=C/CN1C(=O)COc2ccc(C(=O)O)cc21 | 100% | 0% | 0% | 17 | – | – | – | – | – |
| COC(=O)c1ccc2c(c1)N(C/C=C(\C)CC/C=C(\C)CCC=C(C)C)C(=O)CO2 | 59% | 29% | 0% | 22 | – | – | – | – | – |
| CC(C)C[C@H](NC(=O)[C@H](CC(N)=O)NC(=O)[C@@H](NC(=O)[C@@H](N)CCC(=O)O)C(C)C)[C@@H](O)C[C@@H](C)C(=O)N[C@@H](C)C(=O)N[C@@H](CCC(=O)O)C(=O)N[C@@H](Cc1ccccc1)C(=O)O (H-EVN[LeuΨ(S-CHOHCH2)Ala]AEF-OH) | – | – | – | – | 80 | – | – | – | – |
| CCCS(=O)(=O)Oc1ccc(C(=O)O)cc1NC/C=C(\C)CC/C=C(\C)CCC=C(C)C | 93% | 36% | 14% | 3 | – | – | – | – | – |
| CC(C)=CCC/C(C)=C/CC/C(C)=C/CC/C(C)=C/Cc1cc(C(=O)O)ccc1O | 42% and 45% | 30% and 47% | 8% and 10% | 0 | – | – | – | – | – |
| CC(C)=CCC/C(C)=C/CC/C(C)=C/Cc1cc(C(=O)O)ccc1O | 100% | – | – | 5 | – | – | – | – | – |
| COc1ccc(C(=O)N[C@@H](Cc2ccccc2)[C@H](O)CNC2CC2)cc1NC/C=C(\C)CC/C=C(\C)CCC=C(C)C | – | 28% | 10% | – | – | 63 | 34 | – | – |
| COC(=O)c1ccc(OC)c(NC[C@H](O)[C@@H](Cc2ccccc2)NC/C=C(\C)CCC=C(C)C)c1 | – | – | 3% | – | – | 100 | 56 | – | Toxic |
| CC(=O)Oc1ccc(C(=O)O)cc1C/C=C(\C)CC/C=C(\C)CC/C=C(\C)CCC=C(C)C | 87% | – | 24% | 17 | – | – | – | – | Toxic |
